Results as given in article PMC5618418, “Pharmacokinetics of Jaspine B and Enhancement of Intestinal Absorption of Jaspine B in the Presence of Bile Acid in Rats” (Marine Drugs, 2017).

Legend:
[1] = Metabolic stability in rat liver microsomes; format: in vitro ADME; settings: 1 μM, rat liver microsomes, NADPH-generating system, 60 min, 37 °C
Method: Jaspine B (1 μM) was reconstituted in 100 mM potassium phosphate buffer (pH 7.4) containing 0.25 mg of RLMs and was pre-incubated for 5 min at 37 °C. The reaction was initiated by adding an NADPH-generating system (1.3 mM β-NADP, 3.3 mM glucose-6-phosphate, 3.3 mM MgCl2, and 1.0 unit/mL glucose-6-phosphate dehydrogenase) and then incubated (final volume 100 μL) for 0, 15, 30, and 60 min at 37 °C in a shaking water bath. The reaction was stopped by placing the incubation tubes on ice and adding 200 μL of ice-cold acetonitrile containing 0.5 ng/mL of berberine. After vortexing for 10 min and centrifugation at 13,200 rpm for 5 min, 2 μL of the supernatant was injected directly into the LC-MS/MS system.

in vitro = in vitro ADME, rat
Method: For the measurement of the effect of TC on the tight junction of biological membranes, the permeability of 50 μM Lucifer yellow, a marker of paracellular permeation, was measured in the presence of TC (0, 0.1, 1, 10, 100 mM). Prior to the experiment, ileal segments from SD rats (about 20 cm) were placed in the chambers and were submerged in fresh, prewarmed (37 °C) HBSS for 15 min for acclimatization. The chambers were continuously bubbled with carbogen gas (5% CO2/ 95% O2) during the experiment. The experiments began by replacing the HBSS with HBSS containing 50 μM Lucifer yellow and various concentrations of TC on the apical side (A) and adding fresh HBSS to the basal side (B). Aliquots (400 μL) of media were withdrawn from the receiver compartment (B) after 0, 20, 40, 60, and 80 min, and the volume of liquid in the receiver compartment was replenished with fresh, prewarmed HBSS after each sampling. Aliquots (200 μL) of all samples were used for the determination of Lucifer yellow concentration. The fluorescence of Lucifer yellow in the samples was measured using a fluorescence spectrophotometer (Infinite 200 PRO, Tecan, Switzerland) with excitation at 425 nm and emission at 535 nm.
A to B and B to A permeability of Jaspine B was measured in the presence of TC and rat bile. One mL of HBSS containing 50 μM Jaspine B and 10 mM TC or 20% bile was added to the donor side and 1 mL of preheated fresh HBSS was added to the receiver side. Aliquots (400 μL) of media were withdrawn at 0, 20, 40, 60, and 80 min from the receiver compartment as described above. Aliquots (50 μL) of all samples were stored at −80 °C until analysis.
Aliquots (50 μL) of all samples were added to 250 μL of acetonitrile containing 0.5 ng/mL of berberine. After vortexing for 10 min and centrifugation at 13,200 rpm for 5 min, 2 μL of the supernatant was injected directly into the LC-MS/MS system.
The apparent permeability (Papp) of the drug was calculated by dividing the initial drug transport rate (dQ/dt, pmol/min) by the initial drug concentration in the donor compartment of the insert (Co) multiplied by the surface area of the insert (A, cm^2): (3) Papp=dQ/dt×1/ACo

percentage remaining [1] [%] | increase of permeability caused by tight junction opening (in vitro) | permeability change (in vitro) | Compound
63.4 | – | – | CN(C)C(=N)N=C(N)N [metformin, reference compound]
– | ~ 2.8 fold | sharp increase | Lucifer yellow [reference compound]
